The values below come from US9676751B2, “2-amino-3-ester-pyridl orexin receptor antagonists” (MERCK SHARP & DOHME CORP., priority 2013, dated 2017).

One assay deals with T1, hOX1R (Homo sapiens, UniProt O43613).
T1 construct: expressed in transfected cells; host or cells: CHO cells
T1 sequence (O43613 1-425): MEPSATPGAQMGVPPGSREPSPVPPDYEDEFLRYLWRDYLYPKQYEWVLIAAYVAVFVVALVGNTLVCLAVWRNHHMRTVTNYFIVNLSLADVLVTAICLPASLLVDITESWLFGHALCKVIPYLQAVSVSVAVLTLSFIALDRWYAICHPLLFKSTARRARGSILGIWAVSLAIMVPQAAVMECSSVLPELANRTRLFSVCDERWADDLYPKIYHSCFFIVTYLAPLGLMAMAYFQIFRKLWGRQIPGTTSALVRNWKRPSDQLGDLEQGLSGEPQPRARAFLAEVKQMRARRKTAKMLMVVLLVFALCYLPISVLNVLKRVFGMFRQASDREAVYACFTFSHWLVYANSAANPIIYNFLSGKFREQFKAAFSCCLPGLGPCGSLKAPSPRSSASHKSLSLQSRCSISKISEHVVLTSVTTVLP
As to the kind of experiment: FLIPR Ca2+ Flux Assay, CHO cells expressing the orexin-1 receptor. The class given is cell-based. Particulars: agonist 70 pM Ala-6,12 orexin-A. Background: A change in cytosolic calcium serves as a functional read-out for many receptors and channels.

Another assay addresses T2, human orexin-2 receptor (Homo sapiens, UniProt O43614).
T2 construct: expressed in transfected cells; host or cells: CHO cells
T2 sequence (O43614 1-444): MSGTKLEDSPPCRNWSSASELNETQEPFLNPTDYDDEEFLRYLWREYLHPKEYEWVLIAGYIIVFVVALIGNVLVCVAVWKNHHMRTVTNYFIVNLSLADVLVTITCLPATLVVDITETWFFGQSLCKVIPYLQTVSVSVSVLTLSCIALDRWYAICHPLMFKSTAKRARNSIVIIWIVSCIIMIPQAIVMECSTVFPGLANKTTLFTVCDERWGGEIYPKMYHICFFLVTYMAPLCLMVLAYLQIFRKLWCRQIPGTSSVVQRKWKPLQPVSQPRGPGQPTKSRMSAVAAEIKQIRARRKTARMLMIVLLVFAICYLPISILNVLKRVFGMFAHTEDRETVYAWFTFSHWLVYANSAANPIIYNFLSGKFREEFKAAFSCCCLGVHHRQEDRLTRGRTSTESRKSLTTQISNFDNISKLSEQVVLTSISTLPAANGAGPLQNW
As to the kind of experiment: FLIPR Ca2+ Flux Assay, CHO cells expressing the human orexin-2 receptor. The class given is cell-based. The note with it: agonist 70 pM Ala-6,12 orexin-A, read-out: hOX2R FLIPR IC50. As for the experimental part: The utility of the compounds in accordance with the present invention as orexin receptor OX1R and/or OX2R antagonists may be readily determined without undue experimentation by methodology well known in the art, including the “FLIPR Ca^2+ Flux Assay” (Okumura et al., Biochem. Biophys. Res. Comm. 280:976-981, 2001). In a typical experiment the OX1 and OX2 receptor antagonistic activity of the compounds of the present invention was determined in accordance with the following experimental method. For intracellular calcium measurements, Chinese hamster ovary (CHO) cells expressing the rat orexin-1 receptor or the human orexin-2 receptor, are grown in Iscove's modified DMEM containing 2 mM L-glutamine, […], 1% hypoxanthine-thymidine supplement, 100 U/ml penicillin, 100 μg/ml streptomycin and 10% heat-inactivated fetal calf serum (FCS). The cells are seeded at 20,000 cells/well into Becton-Dickinson black 384-well clear bottom sterile plates coated with poly-D-lysine. All reagents were from GIBCO-Invitrogen Corp. The seeded plates are incubated overnight at 37° C. and 5% CO2. Ala-6,12 human orexin-A as the agonist is prepared as a 1 mM stock solution in 1% bovine serum albumin (BSA) and diluted in assay buffer (HBSS containing 20 mM HEPES, 0.1% BSA and 2.5 mM probenecid, pH7.4) for use in the assay at a final concentration of 70 pM. Test compounds are prepared as 10 mM stock solution in DMSO, then diluted in 384-well plates, first in DMSO, then assay buffer. On the day of the assay, cells are washed 3 times with 100 μl assay buffer and then incubated for 60 min (37° C., 5% CO2) in 60 μl assay buffer containing 1 μM Fluo-4AM ester, 0.02% pluronic acid, and 1% BSA. The dye loading solution is then aspirated and cells are washed 3 times with 100 μl assay buffer. 30 μl of that same buffer is left in each well. Within the Fluorescent Imaging Plate Reader (FLIPR, Molecular Devices), test compounds are added to the plate in a volume of 25 μl, incubated for 5 min and finally 25 μl of agonist is added. Fluorescence is measured for each well at 1 second intervals for 5 minutes and the height of each fluorescence peak is compared to the height of the fluorescence peak induced by 70 pM Ala-6,12 orexin-A with buffer in place of antagonist. For each antagonist, IC50 value (the concentration of compound needed to inhibit 50% of the agonist response) is determined. Alternatively, compound potency can be assessed by a radioligand binding assay (described in Bergman et. al. Bioorg. Med. Chem. Lett. 2008, 18, 1425-1430) in which the inhibition constant (Ki) is determined in membranes prepared from CHO cells expressing either the OX1 or OX2 receptor. The intrinsic orexin receptor antagonist activity of a compound which may be used in the present invention may be determined by these assays.

On to `COC(=O)c1c(OC)ccnc1N[C@@H]1CC[C@@H](C)N(C(=O)c2c(F)cccc2-c2noc(C)n2)C1` [Example 10, methyl 2-{[(3R,6R)-1-{[2-fluoro-6-(5-methyl-1,2,4-oxadiazol-3-yl)phenyl]carbonyl}-6-methylpiperidin-3-yl]amino}-4-methoxypyridine-3-carboxylate], for which the IC50 (commonly the midpoint of a concentration-inhibition curve) at hOX1R stood at 332 nM; on human orexin-2 receptor, 88 nM.

`COC(=O)c1c(OC)ccnc1N[C@@H]1CC[C@@H](C)N(C(=O)c2ccccc2-n2ncnn2)C1` [Example 3, Methyl 4-methoxy-2-{[(3R,6R)-6-methyl-1-{[2-(2H-tetrazol-2-yl)phenyl]carbonyl}piperidin-3-yl]amino}pyridine-3-carboxylate]: the IC50 on hOX1R was 237 nM; at human orexin-2 receptor, 34 nM.

Consider `COC(=O)c1c(OC)ccnc1N[C@@H]1CC[C@@H](C)N(C(=O)c2cccc(F)c2-c2ncccn2)C1` [Example 12, methyl 2-({(3R,6R)-1-[(3-fluoro-2-pyrimidin-2-ylphenyl)carbonyl]-6-methylpiperidin-3-yl}amino)-4-methoxypyridine-3-carboxylate], for which the values for the IC50 at hOX1R and on human orexin-2 receptor were 196 nM and 53 nM, respectively.

In the case of `COC(=O)c1c(OC)ccnc1N[C@@H]1CC[C@@H](C)N(C(=O)c2ncccc2-c2ncccn2)C1` [Example 18, methyl 4-methoxy-2-({(3R,6R)-6-methyl-1-[(3-pyrimidin-2-ylpyridin-2-yl)carbonyl]piperidin-3-yl}amino)pyridine-3-carboxylate], the half-inhibitory concentration (IC50) at hOX1R was found to be 338 nM; on human orexin-2 receptor, 168 nM.

For the compound `COC(=O)c1c(OC)ccnc1N[C@@H]1CC[C@@H](C)N(C(=O)c2c(F)cccc2-n2nccn2)C1` [Example 6, methyl 2-{[(3R,6R)-1-{[2-fluoro-6-(2H-1,2,3-triazol-2-yl)phenyl]carbonyl}-6-methylpiperidin-3-yl]amino}-4-methoxypyridine-3-carboxylate], the half-inhibitory concentration (IC50) was determined as 154 nM at hOX1R and 54 nM at human orexin-2 receptor.

With `COC(=O)c1c(OC)ccnc1N[C@@H]1CC[C@@H](C)N(C(=O)c2c(F)cccc2-c2ncccn2)C1` [Example 15, methyl 2-({(3R,6R)-1-[(2-fluoro-6-pyrimidin-2-ylphenyl)carbonyl]-6-methylpiperidin-3-yl}amino)-4-methoxypyridine-3-carboxylate], the IC50 at hOX1R amounted to 66 nM; on human orexin-2 receptor it was 38 nM.

As for `COC(=O)c1cccnc1N[C@@H]1CC[C@@H](C)N(C(=O)c2ccccc2-n2nccn2)C1` [Example 1, Methyl 2-{[(3R,6R)-6-methyl-1-{[2-(2H-1,2,3-triazol-2-yl)phenyl]carbonyl}piperidin-3-yl]amino}pyridine-3-carboxylate], the half-maximal inhibitory concentration (IC50) on human orexin-2 receptor worked out at 38 nM.

For the compound `COC(=O)c1c(OC)ccnc1N[C@@H]1CC[C@@H](C)N(C(=O)c2cccc(F)c2-n2nccn2)C1` [Example 4, methyl 2-{[(3R,6R)-1-{[3-fluoro-2-(2H-1,2,3-triazol-2-yl)phenyl]carbonyl}-6-methylpiperidin-3-yl]amino}-4-methoxypyridine-3-carboxylate], the results for the IC50 at hOX1R and on human orexin-2 receptor were 362 nM and 45 nM, respectively.

In the case of `COC(=O)c1c(OC)ccnc1N[C@@H]1CC[C@@H](C)N(C(=O)c2cccc(F)c2-c2noc(C)n2)C1` [Example 9, methyl 2-{[(3R,6R)-1-{[3-fluoro-2-(5-methyl-1,2,4-oxadiazol-3-yl)phenyl]carbonyl}-6-methylpiperidin-3-yl]amino}-4-methoxypyridine-3-carboxylate], the IC50 at hOX1R turned out to be 236 nM; on human orexin-2 receptor, 57 nM.

As to `COC(=O)c1c(C#N)ccnc1N[C@@H]1CC[C@@H](C)N(C(=O)c2ccccc2-n2nccn2)C1` [Example 19, Methyl 4-cyano-2-{[(3R,6R)-6-methyl-1-{[2-(2H-1,2,3-triazol-2-yl)phenyl]carbonyl}-piperidin-3-yl]amino}pyridine-3-carboxylate], the results for the IC50 on hOX1R and on human orexin-2 receptor were 43 nM and 24 nM, respectively.

As for `COC(=O)c1c(C#N)ccnc1N[C@@H]1CC[C@@H](C)N(C(=O)c2ccccc2-c2ncccn2)C1` [Example 20, Methyl 4-cyano-2-({(3R,6R)-6-methyl-1-[(2-pyrimidin-2-ylphenyl)carbonyl]piperidin-3-yl}amino)pyridine-3-carboxylate], the values for the IC50 at hOX1R and at human orexin-2 receptor were 86 nM and 48 nM, respectively.

`COC(=O)c1c(OC)ccnc1N[C@@H]1CC[C@@H](C)N(C(=O)c2ccccc2-c2ncccn2)C1` [Example 11, Methyl 4-methoxy-2-({(3R,6R)-6-methyl-1-[(2-pyrimidin-2-ylphenyl)carbonyl]piperidin-3-yl}amino)pyridine-3-carboxylate]: the 50% inhibitory concentration (IC50) at hOX1R turned out to be 80 nM; at human orexin-2 receptor it was 41 nM.

Consider `COC(=O)c1c(OC)ccnc1N[C@@H]1CC[C@@H](C)N(C(=O)c2sccc2-c2ncccn2)C1` [Example 16, methyl 4-methoxy-2-({(3R,6R)-6-methyl-1-[(3-pyrimidin-2-ylthiophen-2-yl)carbonyl]piperidin-3-yl}amino)pyridine-3-carboxylate], for which the IC50 at hOX1R stood at 402 nM; at human orexin-2 receptor it was 40 nM.

As for `COC(=O)c1c(OC)ccnc1N[C@@H]1CC[C@@H](C)N(C(=O)c2cc(F)ccc2-n2nccn2)C1` [Example 5, methyl 2-{[(3R,6R)-1-{[5-fluoro-2-(2H-1,2,3-triazol-2-yl)phenyl]carbonyl}-6-methylpiperidin-3-yl]amino}-4-methoxypyridine-3-carboxylate], the IC50 was 207 nM on hOX1R and 45 nM at human orexin-2 receptor.

With `COC(=O)c1c(OC)ccnc1N[C@@H]1CC[C@@H](C)N(C(=O)c2ccccc2-c2nc(C)no2)C1` [Example 7, methyl 4-methoxy-2-{[(3R,6R)-6-methyl-1-{[2-(3-methyl-1,2,4-oxadiazol-5-yl)phenyl]carbonyl}piperidin-3-yl]amino}pyridine-3-carboxylate], the IC50 at hOX1R came out at 309 nM; on human orexin-2 receptor, 74 nM.

As for `COC(=O)c1c(OC)ccnc1N[C@@H]1CC[C@@H](C)N(C(=O)c2c(F)cccc2-c2nc(C)no2)C1` [Example 8, methyl 2-{[(3R,6R)-1-{[2-fluoro-6-(3-methyl-1,2,4-oxadiazol-5-yl)phenyl]carbonyl}-6-methylpiperidin-3-yl]amino}-4-methoxypyridine-3-carboxylate], the values for the half-inhibitory concentration (IC50) on hOX1R and at human orexin-2 receptor were 288 nM and 94 nM, respectively.

For the compound `COC(=O)c1c(OC)ccnc1N[C@@H]1CC[C@@H](C)N(C(=O)c2ccsc2-c2ncccn2)C1` [Example 17, methyl 4-methoxy-2-({(3R,6R)-6-methyl-1-[(2-pyrimidin-2-ylthiophen-3-yl)carbonyl]piperidin-3-yl}amino)pyridine-3-carboxylate], the results for the IC50 on hOX1R and at human orexin-2 receptor were 266 nM and 58 nM, respectively.
